Assay results published in patent US11065296B2, “Antimicrobial peptide, its analog and use” (City University of Hong Kong, priority 2018, dated 2021).
“Also recorded” adds a separate entry of the source. Peptide text beside a SMILES is read from it.

Experiments:
[1] = tested on: E. coli PQ37; experiment: SOS induction (chromotest); assay type: cell-based; details: E. coli PQ37, 120 min; Peptide A 3.4 μM, Piscidin 3.77 μM
Experimental: (§1) Results are expressed as 2^(−Delta Delta C (T)). […] Results are expressed as 2^(−Delta Delta C (T)).
E. coli PQ37 (Genotype: Sfi A and Lac Z fusion, lac Z) was cultured in lysogeny broth (LB) that contained 57.2 μM of ampicillin overnight (37° C.) and subcultured through 20 dilutions on another day so that OD600 equals to 0.2-0.4. PQ37 was incubated in 0.3 ml AMP (3.4 μM) or Piscidin ([…], 3.77 μM) for 2 hours and then re-suspended in the same volume of Z-buffer (Na2HPO4.7H2O 16.1 g/l, NaH2PO4.2H2O 6.24 g/L, KCl 0.75 g/L, MgSO4.7H2O 0.246 g/L and b-mercaptoethanol 0.3% (v/v)) for carrying out a β-galactosidase assay (β-ga) and alkaline phosphatase assay (ap), respectively. The bacteria were lysed with 0.1 ml of 0.1% SDS and 0.15 ml of chloroform. For the β-ga assay, the reaction was started by adding 0.6 ml of ortho-Nitrophenyl-β-galactoside (ONPG; Catalog number 34055, ThermoFisher Scientific) for color development and then stopped with the addition of 2 ml of 1 M NaCO3 solution. For ap acsay, the reaction was started by adding 0.6 ml of para-Nitrophenylphosphate (PNPP; Catalog number 34045, ThermoFisher Scientific) for color development which was then terminated by the addition of 1 ml of 2 M HCl solution and 1 ml of 2 M Tri-HCl to restore the colour. The absorbance was read at 420 nm against a blank without bacteria. The induction factor (IF) was calculated as the ratio R(x)/R(0) (R(x)=β-g/ap determined for the tested peptide; R(0)=β-g/ap determined for the LB). Furacin (antibiotic) and Piscidin were chosen as the controls. Each experiment was performed in triplicate.

[2] = tested on: Escherichia coli BL21 (DE3); assay type: cell-based
Experimental: (§5) MIC denotes the lowest concentration of an antimicrobial agent that can inhibit the growth of bacteria after overnight incubation.
(§6) Bacteria were grown in their respective media (Table 2 above) overnight at 37° C. or room temperature with constant shaking and then diluted to 10^6 CFU/ml in their respective medium. Stock solutions of peptides at 0.68 mM were prepared in distilled water. Bacteria and peptide were incubated (50 μl: 50 μl) to make the final peptide concentrations (0.68, 3.4, 6.8, 13.7, 34.1, 68.3, 136.5 μM) in a 96-microtitre plate and incubated for 24 h with constant shaking. […] Absorbance at 600 nm was detected every 3 h up to 24 h to obtain the growth curves. The minimal inhibition concentration (MIC) was defined as the lowest concentration of an antimicrobial agent that could inhibit the growth of bacteria after overnight incubation.

[3] = tested on: E. tarda; experiment: Host resistance assay, Experiment One: co-injection of bacteria and peptide; assay type: in vivo, Medaka; details: co-injected with Peptide A (0.68 mM, 1 μl) and E. tarda
Experimental: (§2) FIG. 11A is a plot showing the effect of Peptide A on viability of cultured mammalian cells, incubated for 48 h in the presence of Peptide A at different concentrations (μg/ml), as determined by MTT assay. Cell viability represented as peptide treated cell numbers over medium-only control. Statistically significant difference as compared to controls (*: p<0.05, **: p<0.01, n=4). FIG. 11B is a plot showing the ability of Peptide A to protect medaka from lethal challenge of E. tarda ([…]). Medaka was injected with 1 μl of Peptide A (0.68 mM), with 1 μl of E. tarda (10^7 CFU/ml) and Peptide A (0.68 mM) mixture, or with E. tarda alone (1 μl of E. tarda:10^7 CFU/ml). […] 20 fish per group. Log-rank (Mantel-Cox) test was applied for the comparison of survival curves (**: p<0.01).
(§3) The efficacy of the synthesized AMP to protect medaka against infection was characterized using host resistance assays with intraperitoneal (i.p.) injection of bacteria using a micro-injection machine (PV820 Pneumatic PicoPump). […] The number of dead fish was counted on a daily basis until two weeks after the injections.

[4] = tested on: RpoE; experiment: Quantitative real-time PCR; assay type: cell-based; details: E. tarda, 6.8 μM, 1 hr
Text: as §1
(§4) Each group has 6 biological replicates. […] Gene-specific primers were designed with Primer-BLAST (NCBI).

[5] = tested on: CpxR; experiment: Quantitative real-time PCR; assay type: cell-based; details: E. tarda
Text: as §1, §4

[6] = Toxicity in adult Medaka fish, intraperitoneal injection; assay type: in vivo; details: intraperitoneally injected with 1 μg, up to 14 days
Experimental: as §2, §3

[7] = tested on: E. tarda; experiment: Host resistance assay, Experiment Two: pre-injection 2 h before bacteria; assay type: in vivo, Medaka; details: injected 2 h prior to E. tarda
Experimental: as §2
The efficacy of the synthesized AMP to protect medaka against infection was characterized using host resistance assays with intraperitoneal (i.p.) injection of bacteria using a micro-injection machine (PV820 Pneumatic PicoPump). In Experiment One, 80 medaka fish were used and divided into four groups (20 fish in each group, male, 6 months): (1) Group 1 was injected with only 1 μl of PBS in each fish; (2) Group 2 was injected with only 1 μl of novel AMP (0.68 mM) in each fish; (3) Group 3 was injected with 1 μl of bacteria (at a titer of 5×10^7 CFU/ml); and (4) bacteria and novel AMP were mixed for 5 min and then 1 μl of the mixture was injected into Group 4 (Bacteria: 5×10^7 CFU/ml, AMP: 0.68 mM). In Experiment Two, 60 fish were used and divided into three groups: each fish was injected with 1 μl of PBS, ampicillin (5.7 mM) or Peptide A (1.36 mM). The fish were anesthetized in MS222 for 30 s before microinjection. After two hours, 1 μl of bacteria (5×10^7 CFU/ml) was injected into the fish. All of the fishes were kept under a static condition of 26° C.±1° C., with 14:10 hrs of a light-dark cycle. The water was replaced every two days. The fish were fed three times each day. The number of dead fish was counted on a daily basis until two weeks after the injections.

[8] = tested on: Edwardsiella tarda PE210; assay type: cell-based
Experimental: as §5, §6

[9] = tested on: six mammalian cell lines (HeLa, MDA-MB, MC3T3, MCF7, H1299, and AG06858); experiment: In vitro toxicity, 48 hour MTT assay; assay type: cell-based, Human; Mouse; details: concentrations close to the MIC for gram-negative bacteria
Experimental: as §2
Mammalian cell lines (Hela, MDA MB, MC3T3, MCF7, H1299, and AG06858) were seeded into 96 well-plates one day before treatment at a density of 3×10^5 cells/ml for a 48 hour MTT assay. The peptides were directly dissolved in the medium to make a 136.5 μM stock. […] The resulting solution was measured by using a microplate reader (BMG Polarstar Optima) at a wavelength of 570 nm. The optical density (OD) values were recorded and cell viability was calculated based on the OD readings normalized to the untreated cells.

[10] = tested on: CpxA; details: E. tarda, 6.8 μM, 1 hr
Experimental: FIG. 9B is a plot showing the relative expression levels of CpxA, CpxR and RpoE in E. tarda upon treatment with Peptide A for 60 min at 6.8 μM. Results are expressed as 2^(−Delta Delta C (T)). FIG. 9C is a plot showing the CpxR gene expression in E. tarda after treatment with Peptide A (6.8 μM), Piscidin (7.5 μM), Ampicillin (143 μM) and Peptide A+Ampicillin (3.4 μM; 71.5 μM) for 1 hour. Results are expressed as 2^(−Delta Delta C (T)). […] Results expressed as log 2 fold change normalized with control group.
E. tarda or E. coli were treated with AMP or antibiotics or not treated as the control at inhibitory or subinhibitory for 1 hr. After that, the total RNA of the cells were collected by using the RNAprep pure cell/bacteria kit (TIANGEN), then reverse-transcribed into cDNA by using the One-Step FastQuant RT reagent kit with gDNase (TIANGEN). 18S ribosomal RNA (18S) was used as reference gene for qPCR normalization. Each group has 6 biological replicates. In brief, quantitative polymerase chain reaction (qPCR) assays were performed by using fluorescent dye powder SYBR Green PCR Master Mix and the ABI 7500 System. Gene-specific primers were designed with Primer-BLAST (NCBI). […] The relative expression levels (fold change) of the tested genes were calculated by using the relative expression based on the 2^(−Delta Delta C (T)) Method.

[11] = tested on: panel of Gram-positive and Gram-negative bacteria; experiment: Antibacterial activity against a panel of bacteria (summary); assay type: cell-based; details: including beta-lactam resistant bacteria
Experimental: The antibacterial activity of the Peptide A against a panel of Gram-positive and Gram-negative bacteria (FIG. 5A, 5B and Table 2) was determined.
as §6

[12] = tested on: E. cloacae BAA-1143; assay type: cell-based
Experimental: as §5, §6

With `CC[C@H](C)[C@H](N)C(=O)N[C@@H](CCCNC(=N)N)C(=O)N[C@H](C(=O)N[C@H](C(=O)N[C@@H](CC(C)C)C(=O)N[C@@H](CCCNC(=N)N)C(=O)N[C@@H](C)C(=O)N[C@@H](CCC(N)=O)C(=O)NCC(=O)N[C@@H](C)C(=O)N[C@@H](CC(C)C)C(=O)N[C@@H](CCCCN)C(=O)N[C@H](C(=O)O)[C@@H](C)CC)[C@@H](C)CC)[C@@H](C)CC` [Peptide A, IRIILRAQGALKI] (H-IRIILRAQGALKI-OH; N-terminus and C-terminus assumed) the “SOS response (induction factor)” value [1] was “consistent induction of SOS response”, the MICs [2] was 5.5 µM and the medaka survival rate [3] was 80%. For the same compound, the “RpoE mRNA expression” value [4] was “significantly induced”, the “CpxR mRNA expression” value ([5]; Peptide A 6.8 μM, 1 hr) was “significantly reduced” and the “CpxR expression induced by ampicillin” value ([5]; Peptide A+Ampicillin (3.4 μM; 71.5 μM), 1 hour) was “revert the induction of CpxR expression”. For the same compound, the adverse effect [6] was “no adverse effect”, the initial survival rate ([7]; one day post injection, Peptide A 1.37 mM, Ampicillin 5.7 mM, 1 μl) was 85% and the “effect on E. tarda infection / surviving fish” value ([7]; two weeks after infection) was “still higher than the controls”. For the same compound, the MICs [8] was 6.8 µM, the “cytotoxic effect (cell viability, MTT)” value [9] was “No obvious toxicity; also recorded: relatively nontoxic” and the “CpxA mRNA expression” value [10] was “remains unaffected”. The “effect on antibiotic resistant strains” value [11] was “effective on a number of antibiotic resistant strains” and the MICs [12] was 21.8 µM.
